# Measured values as given in patent US20080009418A1, “Selective Inhibitors” (Alchemia LTD., priority 2004, published 2008).
# Assays:
# [1] = biological target: T1, Human δ-opioid (DOP) (Homo sapiens, UniProt P41143); assay: Radioligand binding, human δ-opioid (DOP) membranes, FlashPlate, [3H]-Bremazocine; conditions: compound at 10 μM, [3H]-Bremazocine
# T1 construct: purchased Perkin Elmer Biosignal
# Procedure, shortened: (§1)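 Cloned human receptor membranes were coated onto FlashPlate wells and incubated with radioligand and compound (added from a 0.5 mM DMSO daughter plate) for 1 hour at room temperature in the dark. Scintillation counting gave percent inhibition, with DMSO defining total and reference ligand defining non-specific binding.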
# [2] = biological target: T2, Human κ-Opioid (KOP) (Homo sapiens, UniProt P41145); assay: Radioligand binding, human κ-opioid (KOP) membranes, filtration, [3H]-Diprenorphine; conditions: compound at 10 μM, [3H]-Diprenorphine
# T2 construct: purchased Perkin Elmer Biosignal
# T2 sequence (P41145 whole entry): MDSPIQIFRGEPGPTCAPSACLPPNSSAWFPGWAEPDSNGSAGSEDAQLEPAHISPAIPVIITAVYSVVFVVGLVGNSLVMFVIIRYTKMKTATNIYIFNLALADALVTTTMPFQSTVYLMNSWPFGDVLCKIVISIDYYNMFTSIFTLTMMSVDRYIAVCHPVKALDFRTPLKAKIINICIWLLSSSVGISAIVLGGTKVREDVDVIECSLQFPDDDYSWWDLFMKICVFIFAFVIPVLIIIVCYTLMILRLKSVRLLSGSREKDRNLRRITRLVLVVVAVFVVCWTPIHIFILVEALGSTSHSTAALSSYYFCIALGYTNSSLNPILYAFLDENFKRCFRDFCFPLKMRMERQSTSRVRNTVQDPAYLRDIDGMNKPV
# Procedure, shortened: (§2)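 Membranes from cloned human receptors were incubated with compound and radioligand for 1 hour at room temperature. Bound ligand was collected on 0.3% PEI-soaked filters, washed with cold 50 mM Tris-HCl pH 7.4, and counted by scintillation. Percent inhibition was computed against DMSO totals and reference-ligand nonspecific wells.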
# [3] = biological target: T3, Human Melanocortin (MC3) (Homo sapiens, UniProt P41968); assay: Radioligand binding, human melanocortin MC3 membranes, FlashPlate, [125I]-NDP-αMSH; conditions: compound at 10 μM, [125I]-NDP-αMSH
# T3 construct: purchased Perkin Elmer Biosignal
# T3 sequence (P41968 whole entry): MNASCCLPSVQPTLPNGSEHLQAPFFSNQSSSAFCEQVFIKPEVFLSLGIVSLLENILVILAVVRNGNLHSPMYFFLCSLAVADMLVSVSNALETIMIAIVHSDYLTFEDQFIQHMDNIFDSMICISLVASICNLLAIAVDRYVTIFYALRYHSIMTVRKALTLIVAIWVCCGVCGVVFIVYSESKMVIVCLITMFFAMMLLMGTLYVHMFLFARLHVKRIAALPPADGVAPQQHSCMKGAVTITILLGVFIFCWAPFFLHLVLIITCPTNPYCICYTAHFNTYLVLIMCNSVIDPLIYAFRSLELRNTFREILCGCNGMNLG
# Procedure, shortened: as §1
# [4] = biological target: T4, Human Melanocortin (MC4) (Homo sapiens, UniProt P32245); assay: Radioligand binding, human melanocortin MC4 membranes, FlashPlate, [125I]-NDP-αMSH; conditions: compound at 10 μM, [125I]-NDP-αMSH
# T4 construct: purchased Perkin Elmer Biosignal
# T4 sequence (P32245 whole entry): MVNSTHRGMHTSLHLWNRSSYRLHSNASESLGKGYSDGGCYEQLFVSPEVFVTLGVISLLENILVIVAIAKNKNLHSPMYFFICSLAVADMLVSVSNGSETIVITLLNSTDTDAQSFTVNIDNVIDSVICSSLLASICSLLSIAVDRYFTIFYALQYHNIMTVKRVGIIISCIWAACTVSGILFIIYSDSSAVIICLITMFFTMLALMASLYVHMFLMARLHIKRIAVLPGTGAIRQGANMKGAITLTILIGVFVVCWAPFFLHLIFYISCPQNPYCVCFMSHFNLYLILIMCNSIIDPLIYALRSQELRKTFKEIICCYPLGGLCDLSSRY
# Procedure, shortened: as §1
# [5] = biological target: T5, Human melanocortin (MC5) (Homo sapiens, UniProt P33032); assay: Radioligand binding, human melanocortin MC5 membranes, FlashPlate, [125I]-NDP-αMSH; conditions: compound at 10 μM, [125I]-NDP-αMSH
# T5 construct: purchased Perkin Elmer Biosignal
# T5 sequence (P33032 whole entry): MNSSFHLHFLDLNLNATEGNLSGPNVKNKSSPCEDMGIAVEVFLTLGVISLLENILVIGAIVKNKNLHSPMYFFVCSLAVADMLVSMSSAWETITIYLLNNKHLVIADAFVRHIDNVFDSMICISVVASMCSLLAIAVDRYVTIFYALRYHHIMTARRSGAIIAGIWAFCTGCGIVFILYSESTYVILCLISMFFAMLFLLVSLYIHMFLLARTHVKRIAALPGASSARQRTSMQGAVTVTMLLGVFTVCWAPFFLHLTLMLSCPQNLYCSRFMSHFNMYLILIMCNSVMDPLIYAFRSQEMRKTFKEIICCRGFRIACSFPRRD
# Procedure, shortened: as §1
# [6] = biological target: T6, Human melanin-concentrating hormone (MCH1) (Homo sapiens, UniProt Q99705); assay: Radioligand binding, human melanin-concentrating hormone MCH1 membranes, FlashPlate, [125I]-S36057; conditions: compound at 10 μM
# T6 construct: purchased Perkin Elmer Biosignal
# T6 sequence (Q99705 whole entry): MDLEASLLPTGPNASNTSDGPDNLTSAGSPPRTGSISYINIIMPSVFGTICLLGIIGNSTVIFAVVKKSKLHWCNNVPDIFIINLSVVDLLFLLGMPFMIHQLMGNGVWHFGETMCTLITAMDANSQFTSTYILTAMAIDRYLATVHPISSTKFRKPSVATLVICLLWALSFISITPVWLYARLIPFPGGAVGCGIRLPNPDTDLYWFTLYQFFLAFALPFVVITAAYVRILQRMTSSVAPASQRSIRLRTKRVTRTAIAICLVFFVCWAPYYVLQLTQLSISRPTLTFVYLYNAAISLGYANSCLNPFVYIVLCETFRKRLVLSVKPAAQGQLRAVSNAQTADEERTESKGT
# Procedure, shortened: as §1
# [7] = biological target: T7, Human μ-opioid (MOP) (Homo sapiens, UniProt P35372); assay: Radioligand binding, human μ-opioid (MOP) membranes, FlashPlate, [3H]-Naloxone; conditions: compound at 10 μM, [3H]-Naloxone
# T7 construct: purchased Perkin Elmer Biosignal
# T7 sequence (P35372 whole entry): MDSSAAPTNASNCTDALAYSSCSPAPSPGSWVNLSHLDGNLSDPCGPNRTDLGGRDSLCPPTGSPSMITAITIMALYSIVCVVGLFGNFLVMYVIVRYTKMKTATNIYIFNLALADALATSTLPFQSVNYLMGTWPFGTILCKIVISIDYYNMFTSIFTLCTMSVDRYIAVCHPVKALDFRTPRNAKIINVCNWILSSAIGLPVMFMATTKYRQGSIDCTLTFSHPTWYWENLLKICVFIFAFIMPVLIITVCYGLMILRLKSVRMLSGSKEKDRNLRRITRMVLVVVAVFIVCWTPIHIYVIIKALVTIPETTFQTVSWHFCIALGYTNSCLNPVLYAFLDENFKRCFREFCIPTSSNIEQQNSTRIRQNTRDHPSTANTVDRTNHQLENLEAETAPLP
# Procedure, shortened: as §1
# [8] = biological target: T8, Human neurokinin (NK1) (Homo sapiens, UniProt P25103); assay: Radioligand binding, human neurokinin NK1 membranes, filtration, [125I]-Substance P; conditions: compound at 10 μM, [125I]-Substance P
# T8 construct: purchased Perkin Elmer Biosignal
# T8 sequence (P25103 whole entry): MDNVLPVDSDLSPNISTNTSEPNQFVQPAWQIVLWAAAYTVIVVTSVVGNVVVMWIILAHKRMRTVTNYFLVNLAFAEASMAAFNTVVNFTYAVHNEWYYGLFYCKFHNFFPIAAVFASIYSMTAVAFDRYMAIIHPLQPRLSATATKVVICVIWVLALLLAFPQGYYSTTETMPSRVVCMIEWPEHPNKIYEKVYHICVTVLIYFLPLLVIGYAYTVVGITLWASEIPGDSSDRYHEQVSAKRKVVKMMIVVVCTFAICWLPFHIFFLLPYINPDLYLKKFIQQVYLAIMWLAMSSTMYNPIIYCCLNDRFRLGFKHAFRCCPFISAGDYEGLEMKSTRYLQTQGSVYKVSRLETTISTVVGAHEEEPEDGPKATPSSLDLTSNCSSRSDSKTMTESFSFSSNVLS
# Procedure, shortened: as §2
# [9] = biological target: T9, Human neuropeptide Y (NPY-Y1) (Homo sapiens, UniProt P25929); assay: Radioligand binding, human neuropeptide Y NPY-Y1 membranes, FlashPlate, [125I]-PYY; conditions: compound at 10 μM, [125I]-PYY
# T9 construct: purchased Perkin Elmer Biosignal
# T9 sequence (P25929 1-384): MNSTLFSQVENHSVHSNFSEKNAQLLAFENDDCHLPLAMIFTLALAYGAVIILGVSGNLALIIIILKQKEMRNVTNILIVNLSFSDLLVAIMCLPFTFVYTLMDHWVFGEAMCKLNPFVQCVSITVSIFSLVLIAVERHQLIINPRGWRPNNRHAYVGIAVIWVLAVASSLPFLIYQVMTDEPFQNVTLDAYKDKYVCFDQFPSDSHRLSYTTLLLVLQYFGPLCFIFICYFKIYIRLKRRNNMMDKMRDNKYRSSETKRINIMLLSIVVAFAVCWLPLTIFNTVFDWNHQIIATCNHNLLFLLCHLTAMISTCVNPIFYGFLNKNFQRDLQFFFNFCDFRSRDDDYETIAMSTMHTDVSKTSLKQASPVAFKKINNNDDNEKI
# Procedure, shortened: as §1
# [10] = biological target: T10, Human opioid (ORL1) (Homo sapiens, UniProt P41146); assay: Radioligand binding, human opioid ORL1 membranes, FlashPlate, [125I]-Nociceptin; conditions: compound at 10 μM, [125I]-Nociceptin
# T10 construct: purchased Perkin Elmer Biosignal
# T10 sequence (P41146 whole entry): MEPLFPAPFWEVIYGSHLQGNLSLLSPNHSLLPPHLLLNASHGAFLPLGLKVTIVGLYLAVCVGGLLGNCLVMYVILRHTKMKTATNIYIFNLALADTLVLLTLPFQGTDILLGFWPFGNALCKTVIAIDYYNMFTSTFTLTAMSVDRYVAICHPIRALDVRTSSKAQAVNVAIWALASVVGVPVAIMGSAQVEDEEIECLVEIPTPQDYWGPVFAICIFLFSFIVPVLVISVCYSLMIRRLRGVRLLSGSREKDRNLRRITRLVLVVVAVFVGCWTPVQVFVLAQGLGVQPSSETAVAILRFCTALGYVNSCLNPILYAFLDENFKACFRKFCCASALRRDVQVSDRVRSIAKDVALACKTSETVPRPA
# Procedure, shortened: as §1
# [11] = biological target: T11, Mouse urotensin (mUR2) (Mus musculus, UniProt Q8VIH9); assay: Radioligand binding, mouse urotensin mUR2 membranes, FlashPlate, [125I]-Urotensin II; conditions: compound at 10 μM, [125I]-Urotensin II
# T11 construct: purchased Perkin Elmer Biosignal
# T11 sequence (Q8VIH9 1-385): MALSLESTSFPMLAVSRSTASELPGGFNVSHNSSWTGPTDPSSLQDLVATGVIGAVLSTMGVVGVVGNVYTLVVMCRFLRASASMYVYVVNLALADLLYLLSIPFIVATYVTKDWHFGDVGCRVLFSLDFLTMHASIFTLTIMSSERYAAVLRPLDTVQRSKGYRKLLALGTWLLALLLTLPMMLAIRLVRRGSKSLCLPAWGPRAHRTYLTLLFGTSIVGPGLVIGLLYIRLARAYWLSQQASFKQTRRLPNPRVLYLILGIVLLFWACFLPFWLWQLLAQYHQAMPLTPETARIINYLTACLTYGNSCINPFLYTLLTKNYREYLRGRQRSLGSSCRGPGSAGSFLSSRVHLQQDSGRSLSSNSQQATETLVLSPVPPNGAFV
# Procedure, shortened: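 Cloned mouse urotensin (mUR2) receptor membranes from Perkin Elmer Biosignal were immobilized in FlashPlate microplates using a proprietary coating. Each well got 19.5 μl buffer, then 0.5 μl of DMSO, reference ligand, or compound. Adding 5 μl of [125I]-Urotensin II, diluted to 5× final concentration in binding buffer, started binding. Plates were sealed with TopSeal-A and incubated 1 hour at room temperature in the dark. Wells were counted for 30 seconds each on a TopCount after a 60-second delay, and percentage inhibition was calculated.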
# T1 sequence (P41143 whole entry): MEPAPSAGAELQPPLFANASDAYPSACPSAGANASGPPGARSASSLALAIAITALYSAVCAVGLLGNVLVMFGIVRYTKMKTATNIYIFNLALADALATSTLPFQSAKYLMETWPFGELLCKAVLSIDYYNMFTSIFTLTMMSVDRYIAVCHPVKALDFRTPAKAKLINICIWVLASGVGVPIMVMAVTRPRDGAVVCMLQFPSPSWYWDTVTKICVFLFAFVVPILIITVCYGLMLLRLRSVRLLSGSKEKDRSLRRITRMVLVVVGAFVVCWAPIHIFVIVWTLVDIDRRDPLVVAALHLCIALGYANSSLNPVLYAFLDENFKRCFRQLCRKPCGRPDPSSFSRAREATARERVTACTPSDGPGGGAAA
smiles,measurement,setting,value
CO[C@H]1[C@H](O)[C@@H](COCc2ccc(Cl)cc2)OC(OCc2ccc(Cl)cc2)[C@@H]1NC(=O)CCCN (stereo partly drawn) [compound 107],"A1 radioligand binding, percentage inhibition",[1],− (“−” indicates less than 50% inhibition at 10 μM)
same,"A2 radioligand binding, percentage inhibition",[2],− (“−” indicates less than 50% inhibition at 10 μM)
same,"A3 radioligand binding, percentage inhibition",[3],− (“−” indicates less than 50% inhibition at 10 μM)
same,"A4 radioligand binding, percentage inhibition",[4],+ (“+” indicates greater than 50% inhibition at 10 μM)
same,"A5 radioligand binding, percentage inhibition",[5],+ (“+” indicates greater than 50% inhibition at 10 μM)
same,"A6 radioligand binding, percentage inhibition",[6]; [125I]-S36057,− (“−” indicates less than 50% inhibition at 10 μM)
same,"A7 radioligand binding, percentage inhibition",[7],− (“−” indicates less than 50% inhibition at 10 μM)
same,"A8 radioligand binding, percentage inhibition",[8],+ (“+” indicates greater than 50% inhibition at 10 μM)
same,"A9 radioligand binding, percentage inhibition",[9],− (“−” indicates less than 50% inhibition at 10 μM)
same,"A10 radioligand binding, percentage inhibition",[10],− (“−” indicates less than 50% inhibition at 10 μM)
same,"A11 radioligand binding, percentage inhibition",[11],− (“−” indicates less than 50% inhibition at 10 μM)
COC1C(O)C(COCc2ccc3ccccc3c2)OC(OCc2ccc(Cl)cc2)C1NC(=O)C1CCN(C(=N)N)CC1 (stereo not drawn) [compound 349],"A1: inhibition of radioligand binding, human δ-opioid (DOP)",[1],− (“−” indicates less than 50% inhibition at 10 μM)
same,"A2: inhibition of radioligand binding, human κ-opioid (KOP)",[2],− (“−” indicates less than 50% inhibition at 10 μM)
same,"A3: inhibition of radioligand binding, human melanocortin (MC3)",[3],− (“−” indicates less than 50% inhibition at 10 μM)
same,"A4: inhibition of radioligand binding, human melanocortin (MC4)",[4],− (“−” indicates less than 50% inhibition at 10 μM)
same,"A5: inhibition of radioligand binding, human melanocortin (MC5)",[5],+ (“+” indicates greater than 50% inhibition at 10 μM)
same,"A6: inhibition of radioligand binding, human melanin-concentrating hormone (MCH1)",[6]; [125I]-S36057,− (“−” indicates less than 50% inhibition at 10 μM)
same,"A7: inhibition of radioligand binding, human μ-opioid (MOP)",[7],− (“−” indicates less than 50% inhibition at 10 μM)
same,"A8: inhibition of radioligand binding, human neurokinin (NK1)",[8],+ (“+” indicates greater than 50% inhibition at 10 μM)
same,"A9: inhibition of radioligand binding, human neuropeptide Y (NPY-Y1)",[9],− (“−” indicates less than 50% inhibition at 10 μM)
same,"A10: inhibition of radioligand binding, human opioid (ORL1)",[10],− (“−” indicates less than 50% inhibition at 10 μM)
same,"A11: inhibition of radioligand binding, mouse urotensin (mUR2)",[11],− (“−” indicates less than 50% inhibition at 10 μM)
COCC1OC(OCc2ccc(Cl)cc2)C(NC(=O)CCCN)C(OCc2ccc(Cl)cc2)C1O (stereo not drawn) [compound 203],A1: inhibition of radioligand binding,[1]; FlashPlate,− (“−” indicates less than 50% inhibition at 10 μM)
same,A2: inhibition of radioligand binding,[2]; filtration,− (“−” indicates less than 50% inhibition at 10 μM)
same,A3: inhibition of radioligand binding,[3]; FlashPlate,− (“−” indicates less than 50% inhibition at 10 μM)
same,A4: inhibition of radioligand binding,[4]; FlashPlate,− (“−” indicates less than 50% inhibition at 10 μM)
same,A5: inhibition of radioligand binding,[5]; FlashPlate,+ (“+” indicates greater than 50% inhibition at 10 μM)
same,A6: inhibition of radioligand binding,"[6]; [125I]-S36057, FlashPlate",− (“−” indicates less than 50% inhibition at 10 μM)
same,A7: inhibition of radioligand binding,[7]; FlashPlate,− (“−” indicates less than 50% inhibition at 10 μM)
same,A8: inhibition of radioligand binding,[8]; filtration,+ (“+” indicates greater than 50% inhibition at 10 μM)
same,A9: inhibition of radioligand binding,[9]; FlashPlate,− (“−” indicates less than 50% inhibition at 10 μM)
same,A10: inhibition of radioligand binding,[10]; FlashPlate,− (“−” indicates less than 50% inhibition at 10 μM)
same,A11: inhibition of radioligand binding,[11]; FlashPlate,− (“−” indicates less than 50% inhibition at 10 μM)
